Measured values: US7601745B2, “Heterocyclic NF-kB inhibitors” (4SC AG, priority 2004, dated 2009)

Each compound was assayed on A549-NF-κB-SEAP reporter cells (assay: Inhibition of NF-κB-induced inflammation ([…] NINA Instant Assay, SEAP reporter)). Settings: NF-κB inflammation assay.
Type: cell-based
Description: For the determination of anti-inflammatory activity of the compounds the […]® NINA Instant Assay from Cell Culture Service GmBH was used. This assay is based on recombinant A549-NF-κB-SEAP reporter cells preseeded in 96-well flat bottom plates. As the transfected reportergen for SEAP (secreted embryonic alkaline phosphatase) is under transcriptional control of a NF-κB-responsive element, the expression of this reporter is activated upon stimulation with TNF-α. SEAP secretion into the culture supernatant can be detected by the chemiluminescent substrate CSPD®. Test compounds that inhibit the NF-κB activation show reduced SEAP activity and reduced luminescent readout.
Following 18 h of reactivation at 37° C., 5% CO2 and 90% relative humidity, the cells were incubated with 0.01 up to 100 μM of test compound for 4.5 h before stimulation with 2 ng/ml TNF-α. After stimulation with TNF-α for 22 h endogenous phosphatases were inactivated and CSPD® substrate was supplied for 40 min. SEAP activity then was quantified by measuring luminescence as relative light units (RLU) using a Tecan Ultra reader. Each data point was recorded in quadruplicates and EC50 values were calculated via fitting function and the Microsoft Excel Solver.

Row | SMILES | Biological activity (inhibition in the NF-κB inflammation assay)
1 | NC(=Nc1nc2ccccc2[nH]1)NC(=O)c1csc(NC(=O)c2c(F)cccc2F)n1 [compound 57] | +++ (“+++” stands for 90-100% inhibition)
2 | N=C(NC(=O)c1csc(C2CCN(C(=O)c3ccccc3OC(F)(F)F)CC2)n1)Nc1nc2ccccc2[nH]1 [compound 36] | +++ (“+++” stands for 90-100% inhibition)
3 | CCCS(=O)(=O)c1ccc2[nH]c(NC(=O)c3csc(NC(=O)c4ccccc4OC(F)(F)F)n3)nc2c1 [compound 47] | +++ (“+++” stands for 90-100% inhibition)
4 | CCCS(=O)(=O)c1ccc2[nH]c(NC(=O)c3csc(C4CCN(C(=O)c5ccccc5OC(F)(F)F)CC4)n3)nc2c1 [compound 52] | +++ (“+++” stands for 90-100% inhibition)
5 | O=C(Nc1nc2ccccc2[nH]1)c1csc(NC(=O)c2ccccc2OC(F)(F)F)n1 [compound 31] | +++ (“+++” stands for 90-100% inhibition)

Same assay, conditions: compounds of formula (I); TNF-α stimulated reporter cells; test concentration not given

Row | SMILES | Biological activity (NF-κB inflammation assay, inhibition)
6 | Cc1ccc(S(=O)(=O)N2CCC(c3nc(C(=O)N4CCN(c5cccc(C(F)(F)F)c5)CC4)cs3)CC2)cc1 [compound 204] | + (“+” stands for 50-80% inhibition)
7 | O=C(Cc1ccc(F)cc1)N1CCC(c2nc(C(=O)N3CCN(c4cccc(Cl)c4)CC3)cs2)CC1 [compound 238] | + (“+” stands for 50-80% inhibition)
8 | O=C(c1csc(C2CCN(S(=O)(=O)c3c(F)c(F)c(F)c(F)c3F)CC2)n1)N1CCN(c2cccc(C(F)(F)F)c2)CC1 [compound 193] | + (“+” stands for 50-80% inhibition)
9 | COc1ccc(N2CCC(c3nc(C(=O)N4CCN(c5cccc(C(F)(F)F)c5)CC4)cs3)CC2)c(OC)c1 [compound 153] | + (“+” stands for 50-80% inhibition)
10 | CS(=O)(=O)c1ccc(N2CCC(c3nc(C(=O)N4CCN(c5cccc(C(F)(F)F)c5)CC4)cs3)CC2)cc1 [compound 117] | + (“+” stands for 50-80% inhibition)
11 | CN(C(=O)c1csc(C2CCN(C(=O)c3ccccc3OC(F)(F)F)CC2)n1)C(CN1CCOCC1)c1ccccc1 (stereo not shown) [compound 147] | + (“+” stands for 50-80% inhibition)
12 | O=C(c1csc(C2CCN(C(=O)c3cccs3)CC2)n1)N1CCN(c2cccc(C(F)(F)F)c2)CC1 [compound 212] | + (“+” stands for 50-80% inhibition)
13 | COc1cccc(CN2CCC(c3nc(C(=O)N4CCN(c5cccc(C(F)(F)F)c5)CC4)cs3)CC2)c1 [compound 173] | + (“+” stands for 50-80% inhibition)
14 | O=C(c1csc(C2CCN(S(=O)(=O)c3cccs3)CC2)n1)N1CCN(c2cccc(C(F)(F)F)c2)CC1 [compound 194] | + (“+” stands for 50-80% inhibition)
15 | Cn1nc(C(C)(C)C)cc1C(=O)N1CCC(c2nc(C(=O)N3CCN(c4cccc(C(F)(F)F)c4)CC3)cs2)CC1 [compound 216] | ++ (“++” means 80-90%)
16 | O=C(c1ccc2nccnc2c1)N1CCC(c2nc(C(=O)N3CCN(c4cccc(C(F)(F)F)c4)CC3)cs2)CC1 [compound 211] | + (“+” stands for 50-80% inhibition)
17 | O=C(c1csc(C2CCN(C(=O)C3COc4ccccc4O3)CC2)n1)N1CCN(c2cccc(C(F)(F)F)c2)CC1 (stereo not shown) [compound 217] | +++ (“+++” stands for 90-100% inhibition)
18 | O=C(O)c1ccccc1C(=O)N1CCC(c2nc(C(=O)N3CCN(c4cccc(C(F)(F)F)c4)CC3)cs2)CC1 [compound 185] | + (“+” stands for 50-80% inhibition)
19 | O=C(c1csc(C2CCN(Cc3ccccc3Br)CC2)n1)N1CCN(c2cccc(C(F)(F)F)c2)CC1 [compound 165] | + (“+” stands for 50-80% inhibition)
20 | O=C(c1csc(C2CCN(S(=O)(=O)c3c(Cl)nc4sccn34)CC2)n1)N1CCN(c2cccc(C(F)(F)F)c2)CC1 [compound 197] | + (“+” stands for 50-80% inhibition)
21 | O=C(c1csc(C2CCN(C(=O)c3ccccc3OC(F)(F)F)CC2)n1)N(Cc1ccc(Cl)cc1)Cc1ccc(Cl)cc1 [compound 110] | + (“+” stands for 50-80% inhibition)
22 | COc1nc(OC)nc(N2CCN(C(=O)c3csc(C4CCNCC4)n3)CC2)n1 [compound 152] | ++ (“++” means 80-90%)
23 | O=C(c1csc(C2CCN(c3ccc4c(c3)OCCO4)CC2)n1)N1CCN(c2cccc(C(F)(F)F)c2)CC1 [compound 157] | + (“+” stands for 50-80% inhibition)
24 | Cc1nnsc1C(=O)N1CCC(c2nc(C(=O)N3CCN(c4cccc(C(F)(F)F)c4)CC3)cs2)CC1 [compound 221] | + (“+” stands for 50-80% inhibition)
25 | Cc1noc(C)c1C(=O)N1CCC(c2nc(C(=O)N3CCN(c4cccc(C(F)(F)F)c4)CC3)cs2)CC1 [compound 219] | + (“+” stands for 50-80% inhibition)
26 | COc1nc(OC)nc(N2CCN(C(=O)c3csc(C4CCN(C(=O)Cc5ccc(F)cc5)CC4)n3)CC2)n1 [compound 126] | + (“+” stands for 50-80% inhibition)
27 | O=C(c1csc(C2CCN(Cc3ccncc3)CC2)n1)N1CCN(c2cccc(C(F)(F)F)c2)CC1 [compound 107] | + (“+” stands for 50-80% inhibition)
28 | O=C(c1csc(C2CCN(C(=O)c3ccccc3OC(F)(F)F)CC2)n1)N1CCN(c2cccc(Cl)c2)CC1 [compound 151] | + (“+” stands for 50-80% inhibition)
29 | O=C(c1csc(C2CCN(S(=O)(=O)Cc3ccccc3)CC2)n1)N1CCN(c2cccc(C(F)(F)F)c2)CC1 [compound 198] | + (“+” stands for 50-80% inhibition)
30 | O=C(c1csc(C2CCN(C(=O)c3ccccc3OC(F)(F)F)CC2)n1)N1CCN(c2cccc(C(F)(F)F)c2)CC1 [compound 223] | +++ (“+++” stands for 90-100% inhibition)
31 | O=C(c1csc(C2CCN(c3ccccn3)CC2)n1)N1CCN(c2cccc(C(F)(F)F)c2)CC1 [compound 123] | ++ (“++” means 80-90%)

Same assay, conditions: compounds of formula (II); TNF-α stimulated reporter cells; test concentration not given

Row | SMILES | Biological activity (NF-κB inflammation assay, inhibition)
32 | O=C(NCC1CCN(c2nc(C(=O)N3CCN(c4cccc(C(F)(F)F)c4)CC3)cs2)CC1)c1ccc(C(F)(F)F)c(F)c1 [compound 99] | + (“+” stands for 50-80% inhibition)
33 | O=C(c1csc(N2CCN(C(=O)c3ccccc3OC(F)(F)F)CC2)n1)N1CCN(c2cccc(C(F)(F)F)c2)CC1 [compound 39] | +++ (“+++” stands for 90-100% inhibition)
34 | O=C(c1csc(N2CCNCC2)n1)N1CCN(c2cccc(C(F)(F)F)c2)CC1 [compound 64] | + (“+” stands for 50-80% inhibition)
35 | O=C(Nc1nc(C(=O)N2CCN(c3cccc(C(F)(F)F)c3)CC2)cs1)c1ccccc1OC(F)(F)F [compound 32] | +++ (“+++” stands for 90-100% inhibition)
36 | CC(=O)c1ccc(N2CCN(c3nc(C(=O)N4CCN(c5cccc(C(F)(F)F)c5)CC4)cs3)CC2)cc1 [compound 66] | ++ (“++” means 80-90%)
37 | COc1ccccc1N1CCN(c2nc(C(=O)N3CCN(c4cccc(C(F)(F)F)c4)CC3)cs2)CC1 [compound 65] | ++ (“++” means 80-90%)
38 | CC(C)(C)OC(=O)N1CCN(c2nc(C(=O)N3CCN(c4cccc(C(F)(F)F)c4)CC3)cs2)CC1 [compound 63] | ++ (“++” means 80-90%)
39 | O=C(Nc1nc(C(=O)N2CCN(c3cccc(C(F)(F)F)c3)CC2)cs1)Nc1ccccc1OC(F)(F)F [compound 55] | +++ (“+++” stands for 90-100% inhibition)
40 | O=C(NCC1CCN(c2nc(C(=O)N3CCN(c4cccc(C(F)(F)F)c4)CC3)cs2)CC1)c1ccccc1OC(F)(F)F [compound 101] | + (“+” stands for 50-80% inhibition)
41 | O=C(CCC1CCCC1)NCC1CCN(c2nc(C(=O)N3CCN(c4cccc(C(F)(F)F)c4)CC3)cs2)CC1 [compound 100] | + (“+” stands for 50-80% inhibition)

Same assay, conditions: compounds of formula (Ia); TNF-α stimulated reporter cells; test concentration not given

Row | SMILES | Biological activity (NF-κB inflammation assay, inhibition)
42 | COc1cccc(NC(=O)N2CCC(c3nc(C(=O)N4CCN(c5cccc(C(F)(F)F)c5)CC4)cs3)CC2)c1 [compound 80] | + (“+” stands for 50-80% inhibition)
43 | O=C(Nc1cc(F)cc2c1OCCO2)N1CCC(c2nc(C(=O)N3CCN(c4cccc(C(F)(F)F)c4)CC3)cs2)CC1 [compound 74] | ++ (“++” means 80-90%)
44 | Cc1cc(NC(=O)N2CCC(c3nc(C(=O)N4CCN(c5cccc(C(F)(F)F)c5)CC4)cs3)CC2)c(C(F)(F)F)o1 [compound 76] | ++ (“++” means 80-90%)

Same assay, conditions: compounds of formula (Ib); TNF-α stimulated reporter cells; test concentration not given

Row | SMILES | Biological activity (NF-κB inflammation assay, inhibition)
45 | Cc1sc(C2CCN(C(=O)c3ccccc3OC(F)(F)F)CC2)nc1CC(=O)N1CCN(c2cccc(Cl)c2)CC1 [compound 128] | +++ (“+++” stands for 90-100% inhibition)

Same assay, conditions: compounds of formula (Ic); TNF-α stimulated reporter cells; test concentration not given

Row | SMILES | Biological activity (NF-κB inflammation assay, inhibition)
46 | CNc1ccc(Cl)cc1C1c2ccccc2CCN1C(=O)c1csc(C2CCN(C(=O)Cc3ccc(F)cc3)CC2)n1 (stereo not shown) [compound 235] | + (“+” stands for 50-80% inhibition)
